Biological target: T1, wild-type HIV-1 protease (Human immunodeficiency virus type 1 group M subtype B, UniProt P04585)
T1 construct: Escherichia coli expressed wild-type HIV-1 protease protein; made in house; host or cells: Escherichia coli
Assay: Assay for Inhibition of Microbial Expressed HIV Protease
Format: biochemical
Details: Escherichia coli expressed wild-type HIV-1 protease, peptide substrate cleavage; mean of at least two independent experiments
Procedure: Inhibition of Escherichia coli expressed wild-type HIV-1 protease protein was carried out with a peptide substrate [Val-Ser-Gln-Asn-Wnaphtyl)Ala-Pro-Ile-Val]. The inhibitor compound was preincubated with HIV-1 protease enzyme in assay buffer (50 mM sodium acetate, pH 5.5, 100 mM NaCl, and 0.1% BSA) for 30 minutes at room temperature. Peptide substrate was added to 400 μM in a total volume of 20 μL containing 20 pM HIV-1 protease (final) after which the reaction was incubated for 1 hour at 30° C. The reaction was quenched by the addition of formic acid and HIV protease inhibitor indinavir to 0.012% and 150 nM final concentrations, respectively. Product formation was determined after separation of product and substrate on a ZORBAX Eclipse XDB-C18 column (Aligent Technologies, Santa Clara, Calif., USA) connected to an API 4000™ mass spectrometer (AB Sciex, Pte. Ltd., Concord Ontario, Canada) with multiple reaction monitoring (transitions were 644.5/428.9 and 615.4/422.2 (M1/M3) for product and indinavir respectively). The extent of inhibition of the reaction was determined from the peak area of the products. Analysis of the products, independently synthesized, provided quantitation standards and confirmation of the product composition. […] Ic50's refer to the 50% inhibition of the cleavage of a peptide substrate by hiv protease.
Data shown in the table reflects the mean of at least two independent experiments.

With `CC(C)CCC1(c2ccccc2)NC(=N)N(Cc2cccc(C(=O)N(C)Cc3ccccc3S(C)(=O)=O)c2)C1=O` (centres unmarked) [Example 29, 3-{[2-imino-4-(3-methylbutyl)-5-oxo-4-phenylimidazolidin-1-yl]methyl}-N-methyl-N-[2-(methylsulfonyl)-benzyl]benzamide] the IC50 was 17.8 nM.
In the case of `CN(Cc1ccc(Cl)cc1)C(=O)c1cccc(CN2C(=N)NC(c3ccc(F)cc3)(c3ccc(F)cc3)C2=O)c1` [Example 30, 3-{[4,4-bis(4-fluorophenyl)-2-imino-5-oxoimidazolidin-1-yl]methyl}-N-(4-chlorobenzyl)-N-methylbenzamide], the IC50 is reported as 17.9 nM.
`CC(C)CCC1(c2cccc(-c3cccnc3)c2)NC(=N)N(Cc2cccc(C(=O)N(C)Cc3ccc(C#N)cc3)c2)C1=O` (centres unmarked) [Example 31, N-(4-cyanobenzyl)-3-{[2-imino-4-(3-methylbutyl)-5-oxo-4-(3-pyridin-3-ylphenyl)imidazolidin-1-yl]methyl}-N-methylbenzamide] showed an IC50 of 19 nM.
For `CN(Cc1ccc(F)cc1)C(=O)c1cccc(CN2C(=N)NC(c3ccccc3)(c3ccccc3)C2=O)c1` [Example 32, N-(4-fluorobenzyl)-3-[(2-imino-5-oxo-4,4-diphenylimidazolidin-1-yl)methyl]-N-methylbenzamide], the IC50 was 19.3 nM.
Work on `CC(C)C[C@]1(c2ccccc2)NC(=N)N([C@H](C)c2cccc(C(=O)N(C)Cc3ccc(F)cc3)c2)C1=O` [Example 33, N-(4-fluorobenzyl)-3-((R)-1-((R)-2-imino-4-isobutyl-5-oxo-4-phenylimidazolidin-1-yl)ethyl)-N-methylbenzamide] yielded an IC50 of 19.8 nM.
With `CN(C)C(=O)c1cccc(C2(c3ccc(F)cc3)NC(=N)N(Cc3cccc(C(=O)N(C)Cc4ccc(Cl)cc4)c3)C2=O)c1` (centres unmarked) [Example 34, 3-[1-{3-[(4-chlorobenzyl)(methyl)-carbamoyl]benzyl}-4-(4-fluorophenyl)-2-imino-5-oxoimidazolidin-4-yl]-N,N-dimethylbenzamide] the IC50 was 19.9 nM.
`CC(C)CCC1(c2ccc(F)cc2)NC(=N)N(Cc2cccc(C(=O)N(C)Cc3ccc(C#N)cc3)c2)C1=O` (centres unmarked) [Example 35, N-(4-cyanobenzyl)-3-{[4-(4-fluorophenyl)-2-imino-4-(3-methylbutyl)-5-oxoimidazolidin-1-yl]methyl}-N-methylbenzamide] showed an IC50 of 20.5 nM.
`CN(Cc1ccc(Cl)cc1)C(=O)c1cccc(CN2C(=N)NC(c3ccccc3)(c3ccccc3)C2=O)c1` [Example 36, N-(4-chlorobenzyl)-3-[(2-imino-5-oxo-4,4-diphenylimidazolidin-1-yl)methyl]-N-methylbenzamide] gave an IC50 of 21.7 nM.
`CN(Cc1ccc(Cl)cc1)C(=O)c1cccc(CN2C(=N)NC(c3ccc(F)cc3)(c3cccc(C#N)c3)C2=O)c1` (centres unmarked) [Example 37, N-(4-chlorobenzyl)-3-{[4-(3-cyanophenyl)-4-(4-fluorophenyl)-2-imino-5-oxoimidazolidin-1-yl]methyl}-N-methylbenzamide] gave an IC50 of 23.5 nM.
`CN(Cc1ccnc(Cl)c1)C(=O)c1cccc(CN2C(=N)NC(c3ccc(F)cc3)(c3ccc(F)cc3)C2=O)c1` [Example 38, 3-{[4,4-bis(4-fluorophenyl)-2-imino-5-oxoimidazolidin-1-yl]methyl}-N-[(2-chloropyridin-4-yl)methyl]-N-methylbenzamide] was tested, and the IC50 was 23.8 nM.
With `CN(Cc1ccc(Cl)cc1)C(=O)c1cccc(CN2C(=N)NC(c3ccc(F)cc3)(c3ccccn3)C2=O)c1` (centres unmarked) [Example 39, N-(4-chlorobenzyl)-3-{[4-(4-fluorophenyl)-2-imino-5-oxo-4-pyridin-2-ylimidazolidin-1-yl]methyl}-N-methylbenzamide] the IC50 was 24.8 nM.
`CN(Cc1ccc(Cl)cc1)C(=O)c1cccc(CN2C(=N)NC(c3ccc(F)cc3)(c3cccc(Br)c3)C2=O)c1` (centres unmarked) [Example 40, 3-{[4-(3-bromophenyl)-4-(4-fluorophenyl)-2-imino-5-oxoimidazolidin-1-yl]methyl}-N-(4-chlorobenzyl)-N-methylbenzamide] was tested, and the IC50 was 25.9 nM.
With `C[C@H](c1ccc(Cl)cc1)N(C)C(=O)c1cccc(CN2C(=N)NC(c3ccc(F)cc3)(c3ccc(F)cc3)C2=O)c1` [Example 41, 3-{[4,4-bis(4-fluorophenyl)-2-imino-5-oxoimidazolidin-1-yl]methyl}-N-[(1R)-1-(4-chlorophenyl)ethyl]-N-methylbenzamide] the IC50 was 26.5 nM.
`CCN(Cc1ccc(F)cc1)C(=O)c1cccc(CN2C(=N)NC(c3ccc(F)cc3)(c3ccc(F)cc3)C2=O)c1` [Example 42, 3-{[4,4-bis(4-fluorophenyl)-2-imino-5-oxoimidazolidin-1-yl]methyl}-N-ethyl-N-(4-fluorobenzyl)benzamide] showed an IC50 of 28.6 nM.
`CCCC1(c2ccccc2)NC(=N)N(Cc2cccc(C(=O)N(C)Cc3ccc(F)cc3)c2)C1=O` (centres unmarked) [Example 43, N-(4-fluorobenzyl)-3-[(2-imino-5-oxo-4-phenyl-4-propylimidazolidin-1-yl)methyl]-N-methylbenzamide] gave an IC50 of 28.7 nM.
In the case of `C[C@H](c1ccc(F)cc1)N(C)C(=O)c1cccc(CN2C(=N)NC(c3ccc(F)cc3)(c3ccc(F)cc3)C2=O)c1` [Example 44, 3-{[4,4-bis(4-fluorophenyl)-2-imino-5-oxoimidazolidin-1-yl]methyl}-N-[(1R)-1-(4-fluorophenyl)ethyl]-N-methylbenzamide], the IC50 is reported as 29.2 nM.
`CN(C)C(=O)c1cccc(CN2C(=N)NC(c3ccccc3)(c3ccc(-c4ccccc4)cc3)C2=O)c1` (centres unmarked) [Example 45, 3-[(4-biphenyl-4-yl-2-imino-5-oxo-4-phenylimidazolidin-1-yl)methyl]-N,N-dimethylbenzamide] gave an IC50 of 30.3 nM.
In the case of `CN(Cc1ccccc1C(F)(F)F)C(=O)c1cccc(CN2C(=N)NC(c3ccc(F)cc3)(c3ccc(F)cc3)C2=O)c1` [Example 46, 3-{[4,4-bis(4-fluorophenyl)-2-imino-5-oxoimidazolidin-1-yl]methyl}-N-methyl-N-[2-(trifluoromethyl)-benzyl]benzamide], the IC50 is reported as 31.1 nM.
For `CCCC1(c2ccccc2)NC(=N)N(Cc2cccc(C(=O)N(C)Cc3ccc(Cl)cn3)c2)C1=O` (centres unmarked) [Example 47, N-[(5-chloropyridin-2-yl)methyl]-3-[(2-imino-5-oxo-4-phenyl-4-propylimidazolidin-1-yl)methyl]-N-methylbenzamide], the IC50 was 33.3 nM.
For `C[C@H](c1ccccc1)N(C)C(=O)c1cccc(CN2C(=N)NC(c3ccccc3)(c3ccccc3)C2=O)c1` [Example 48, 3-[(2-imino-5-oxo-4,4-diphenylimidazolidin-1-yl)methyl]-N-methyl-N-[(1R)-1-phenylethyl]benzamide], the IC50 was 39.6 nM.
`CC(C)CCC1(c2cccc(F)c2)NC(=N)N(Cc2cccc(C(=O)N(C)Cc3ccc(Cl)cc3)c2)C1=O` (centres unmarked) [Example 49, N-(4-chlorobenzyl)-3-{[4-(3-fluorophenyl)-2-imino-4-(3-methylbutyl)-5-oxoimidazolidin-1-yl]methyl}-N-methylbenzamide] gave an IC50 of 43.5 nM.
In the case of `[2H]C([2H])([2H])N(C(=O)c1cccc(CN2C(=N)NC(c3ccc(F)cc3)(c3ccc(F)cc3)C2=O)c1)[C@H](C)c1ccc(F)cc1` [Example 50, 3-{[4,4-bis(4-fluorophenyl)-2-imino-5-oxoimidazolidin-1-yl]methyl}-N-[(1R)-1-(4-fluorophenyl)ethyl]-N(~2~H_3_)methylbenzamide], the IC50 is reported as 45.1 nM.
Compound `CN(C)C(=O)c1cccc(CN2C(=N)NC(c3ccccc3)(c3cccc(-c4cccc(C#N)c4)c3)C2=O)c1` (centres unmarked) [Example 51, 3-{[4-(3'-cyanobiphenyl-3-yl)-2-imino-5-oxo-4-phenylimidazolidin-1-yl]methyl}-N,N-dimethylbenzamide] has an IC50 of 45.5 nM.
Compound `CN(Cc1ccccc1S(C)(=O)=O)C(=O)c1cccc(CN2C(=N)NC(c3ccc(F)cc3)(c3ccc(F)cc3)C2=O)c1` [Example 52, 3-{[4,4-bis(4-fluorophenyl)-2-imino-5-oxoimidazolidin-1-yl]methyl}-N-methyl-N-[2-(methylsulfonyl)-benzyl]benzamide] has an IC50 of 48.3 nM.
In the case of `CN(C)C(=O)c1cccc(CN2C(=N)NC(c3ccc(F)cc3)(c3cccc(Br)c3)C2=O)c1` (centres unmarked) [Example 53, 3-{[4-(3-bromophenyl)-4-(4-fluorophenyl)-2-imino-5-oxoimidazolidin-1-yl]methyl}-N,N-dimethylbenzamide], the IC50 is reported as 48.6 nM.
In the case of `CN(C)C(=O)c1cccc(CN2C(=N)NC(c3ccccc3)(c3ccc(-c4cccc(C#N)c4)cc3)C2=O)c1` (centres unmarked) [Example 54, 3-{[4-(3'-cyanobiphenyl-4-yl)-2-imino-5-oxo-4-phenylimidazolidin-1-yl]methyl}-N,N-dimethylbenzamide], the IC50 is reported as 52.2 nM.
`CC(C)C[C@@]1(c2ccccc2)NC(=N)N([C@H](C)c2cccc(C(=O)N(C)Cc3ccc(F)cc3)c2)C1=O` [Example 55, N-(4-fluorobenzyl)-3-((R)-1-((S)-2-imino-4-isobutyl-5-oxo-4-phenylimidazolidin-1-yl)ethyl)-N-methylbenzamide] gave an IC50 of 52.9 nM.
`CN(C)C(=O)c1cccc(CN2C(=N)NC(c3ccccc3)(c3cccc(-c4ccco4)c3)C2=O)c1` (centres unmarked) [Example 56, 3-{[4-(3-furan-2-ylphenyl)-2-imino-5-oxo-4-phenylimidazolidin-1-yl]methyl}-N,N-dimethylbenzamide] was tested, and the IC50 was 56.3 nM.
`CN(Cc1cccnc1)C(=O)c1cccc(CN2C(=N)NC(c3ccc(F)cc3)(c3ccc(F)cc3)C2=O)c1` [Example 57, 3-{[4,4-bis(4-fluorophenyl)-2-imino-5-oxoimidazolidin-1-yl]methyl}-N-methyl-N-(pyridin-3-ylmethyl)benzamide] was tested, and the IC50 was 58.9 nM.
